Activity data for 2 compounds are collected here from ChEMBL document CHEMBL1743201, “Casarett and Doull's Toxicology The Basic Science of Poisons, 7th edition” (2008).

Each structure is given as a SMILES string.

Assay type in all cases: ADME
One series deals with T1, Cytochrome P450 2C8 (Homo sapiens, UniProt P10632).
T1 sequence (P10632 whole entry): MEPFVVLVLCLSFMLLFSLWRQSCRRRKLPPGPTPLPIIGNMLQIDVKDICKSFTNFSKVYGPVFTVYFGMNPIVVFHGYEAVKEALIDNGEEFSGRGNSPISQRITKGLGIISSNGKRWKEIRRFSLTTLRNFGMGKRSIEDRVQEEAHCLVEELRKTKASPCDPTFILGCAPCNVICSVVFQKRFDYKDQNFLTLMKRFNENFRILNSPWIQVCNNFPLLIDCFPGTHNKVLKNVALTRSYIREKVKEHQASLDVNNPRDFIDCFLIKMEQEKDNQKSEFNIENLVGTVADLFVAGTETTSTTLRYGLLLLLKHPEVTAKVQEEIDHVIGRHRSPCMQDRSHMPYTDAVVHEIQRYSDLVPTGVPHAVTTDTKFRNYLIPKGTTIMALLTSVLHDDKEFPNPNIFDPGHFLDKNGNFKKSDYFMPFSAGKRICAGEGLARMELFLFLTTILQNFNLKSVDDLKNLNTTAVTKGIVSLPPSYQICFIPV
Description: Clinically relevant inducers of human liver microsomal P450 enzymes, isoform CYP2C8. The note with it: microsomes. On the technique in general: Liver microsomes are vesicles of endoplasmic reticulum, rich in cytochrome P450 enzymes.

The target of another series is Cytochrome P450 2C9 (Homo sapiens, UniProt P11712). The series can be described thus: Clinically relevant inducers of human liver microsomal P450 enzymes, isoform CYP2C9. The settings on record: microsomes.
Another series deals with Cytochrome P450 2C19 (Homo sapiens, UniProt P33261). Description: Clinically relevant inducers of human liver microsomal P450 enzymes, isoform CYP2C19. The settings on record: microsomes.
The target in series [1] is T2, Nuclear receptor subfamily 1 group I member 3 (Mus musculus, UniProt O35627).
T2 sequence (O35627 whole entry): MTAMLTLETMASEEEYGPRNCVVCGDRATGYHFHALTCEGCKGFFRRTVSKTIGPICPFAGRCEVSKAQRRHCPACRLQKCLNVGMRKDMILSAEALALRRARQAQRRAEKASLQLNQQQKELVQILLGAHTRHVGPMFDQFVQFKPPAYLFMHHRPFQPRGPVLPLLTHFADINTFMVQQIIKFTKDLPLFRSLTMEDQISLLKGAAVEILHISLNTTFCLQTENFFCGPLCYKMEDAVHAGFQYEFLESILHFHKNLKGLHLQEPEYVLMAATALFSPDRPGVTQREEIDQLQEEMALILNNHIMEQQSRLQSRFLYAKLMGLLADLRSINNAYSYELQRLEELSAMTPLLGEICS
The series can be described thus: (§1) Constitutive androstane receptor indirect activator.

In series [2] the target is T3, Nuclear receptor subfamily 1 group I member 3 (Homo sapiens, UniProt Q14994).
T3 sequence (Q14994 whole entry): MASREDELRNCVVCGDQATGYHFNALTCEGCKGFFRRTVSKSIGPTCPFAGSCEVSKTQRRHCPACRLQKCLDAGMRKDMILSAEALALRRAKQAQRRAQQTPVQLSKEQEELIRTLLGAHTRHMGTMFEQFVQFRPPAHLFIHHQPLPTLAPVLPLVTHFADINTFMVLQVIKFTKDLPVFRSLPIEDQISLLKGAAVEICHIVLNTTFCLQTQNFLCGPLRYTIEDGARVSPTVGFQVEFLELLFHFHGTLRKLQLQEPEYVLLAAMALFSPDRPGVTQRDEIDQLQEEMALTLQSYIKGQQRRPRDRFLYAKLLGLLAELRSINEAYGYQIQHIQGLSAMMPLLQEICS
Described as §1.

In a further series the target is T4, Cytochrome P450 2B6 (Homo sapiens, UniProt P20813).
T4 sequence (P20813 whole entry): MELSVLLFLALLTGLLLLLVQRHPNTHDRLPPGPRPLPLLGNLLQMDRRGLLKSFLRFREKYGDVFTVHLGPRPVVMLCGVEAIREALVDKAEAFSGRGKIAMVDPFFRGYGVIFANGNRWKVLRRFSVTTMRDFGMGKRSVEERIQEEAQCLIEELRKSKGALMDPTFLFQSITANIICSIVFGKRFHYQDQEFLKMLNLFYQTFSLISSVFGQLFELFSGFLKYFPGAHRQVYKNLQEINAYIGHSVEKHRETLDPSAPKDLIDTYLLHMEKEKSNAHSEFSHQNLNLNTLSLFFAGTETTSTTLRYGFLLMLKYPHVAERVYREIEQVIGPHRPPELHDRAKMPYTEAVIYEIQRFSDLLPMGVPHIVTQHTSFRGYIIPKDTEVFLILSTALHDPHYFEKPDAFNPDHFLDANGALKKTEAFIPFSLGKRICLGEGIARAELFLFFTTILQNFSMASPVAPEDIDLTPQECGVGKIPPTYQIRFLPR
The series can be described thus: Clinically relevant inducers of human liver microsomal P450 enzymes, isoform CYP2B6. The note with it: microsomes.

For series [3], the target named is Glutathione S-transferase Mu 3 (Homo sapiens, UniProt P21266). Description: Substrates for human cytosolic glutathione transferase GSTM3.
The next series deals with Prostaglandin E synthase (Homo sapiens, UniProt O14684). Description: Substrates for human microsomal glutathione transferase PTGEs.
Series [4] concerns the target T5, Glutathione S-transferase Mu 2 (Homo sapiens, UniProt P28161).
T5 sequence (P28161 whole entry): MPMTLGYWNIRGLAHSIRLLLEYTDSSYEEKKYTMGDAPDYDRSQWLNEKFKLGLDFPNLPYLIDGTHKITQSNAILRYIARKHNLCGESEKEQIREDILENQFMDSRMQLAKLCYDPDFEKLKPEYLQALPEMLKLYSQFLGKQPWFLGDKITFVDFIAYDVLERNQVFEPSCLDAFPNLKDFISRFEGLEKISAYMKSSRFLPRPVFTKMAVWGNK
Description: Substrates for human cytosolic glutathione transferase GSTM2.

In series [5] the target is Hematopoietic prostaglandin D synthase (Homo sapiens, UniProt O60760). Description: Substrates for human cytosolic glutathione transferase PGDS.
Sequence of Hematopoietic prostaglandin D synthase (O60760 whole entry): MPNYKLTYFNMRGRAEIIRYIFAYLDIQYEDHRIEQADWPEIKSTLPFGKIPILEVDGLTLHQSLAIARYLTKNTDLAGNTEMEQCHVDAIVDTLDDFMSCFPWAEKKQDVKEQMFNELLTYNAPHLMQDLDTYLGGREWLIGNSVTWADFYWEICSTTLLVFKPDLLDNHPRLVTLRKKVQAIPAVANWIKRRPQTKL

Sequence of Cytochrome P450 2C19 (P33261 whole entry, canonical isoform): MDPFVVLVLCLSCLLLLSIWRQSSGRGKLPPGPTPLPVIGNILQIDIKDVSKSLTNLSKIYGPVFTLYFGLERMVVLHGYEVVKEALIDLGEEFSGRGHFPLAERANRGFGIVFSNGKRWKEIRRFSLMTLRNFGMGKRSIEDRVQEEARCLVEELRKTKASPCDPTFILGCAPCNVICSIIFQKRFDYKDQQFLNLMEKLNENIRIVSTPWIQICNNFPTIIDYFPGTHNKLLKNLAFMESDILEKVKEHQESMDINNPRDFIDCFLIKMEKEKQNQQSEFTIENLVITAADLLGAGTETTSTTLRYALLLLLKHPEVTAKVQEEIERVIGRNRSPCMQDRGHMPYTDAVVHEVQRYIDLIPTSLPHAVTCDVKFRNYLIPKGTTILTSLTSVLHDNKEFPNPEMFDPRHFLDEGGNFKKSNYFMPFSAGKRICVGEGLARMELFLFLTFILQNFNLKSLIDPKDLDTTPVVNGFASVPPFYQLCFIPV
Sequence of Cytochrome P450 2C9 (P11712 whole entry, canonical isoform): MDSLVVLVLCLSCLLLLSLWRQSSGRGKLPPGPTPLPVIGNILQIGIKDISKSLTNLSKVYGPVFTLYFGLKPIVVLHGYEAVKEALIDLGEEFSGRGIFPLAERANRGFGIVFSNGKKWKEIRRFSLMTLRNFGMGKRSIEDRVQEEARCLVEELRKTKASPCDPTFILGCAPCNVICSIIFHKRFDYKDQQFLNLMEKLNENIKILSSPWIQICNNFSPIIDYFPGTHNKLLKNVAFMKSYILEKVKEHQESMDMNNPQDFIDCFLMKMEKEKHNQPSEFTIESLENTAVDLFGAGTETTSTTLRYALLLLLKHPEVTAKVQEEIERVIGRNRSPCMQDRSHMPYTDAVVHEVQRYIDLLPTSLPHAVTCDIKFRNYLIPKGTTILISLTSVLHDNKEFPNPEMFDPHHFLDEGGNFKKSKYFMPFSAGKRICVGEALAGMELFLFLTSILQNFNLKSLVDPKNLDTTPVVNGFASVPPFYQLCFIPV
Sequence of Prostaglandin E synthase (O14684 whole entry): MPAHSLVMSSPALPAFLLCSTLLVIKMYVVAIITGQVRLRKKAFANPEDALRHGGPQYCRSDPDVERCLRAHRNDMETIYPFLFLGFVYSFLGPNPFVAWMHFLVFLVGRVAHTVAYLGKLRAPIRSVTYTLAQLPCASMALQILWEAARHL
Sequence of Glutathione S-transferase Mu 3 (P21266 whole entry): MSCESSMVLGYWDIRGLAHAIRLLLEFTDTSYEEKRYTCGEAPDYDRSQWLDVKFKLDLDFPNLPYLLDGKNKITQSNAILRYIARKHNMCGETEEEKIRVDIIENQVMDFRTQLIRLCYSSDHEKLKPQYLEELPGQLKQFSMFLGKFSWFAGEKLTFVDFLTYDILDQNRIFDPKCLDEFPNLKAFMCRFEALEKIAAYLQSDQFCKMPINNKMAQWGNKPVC

Regarding `CCC1(c2ccccc2)C(=O)NC(=O)NC1=O` [PHENOBARBITAL], the Activity result was “Inducer” on Cytochrome P450 2C8; “Inducer” at Cytochrome P450 2C9; “Inducer” on Cytochrome P450 2C19; “indirect activator” in series [1]; “indirect activator” in series [2]; “Inducer” at Cytochrome P450 2B6.

Turning to `CCCCC[C@H](O)/C=C/[C@H]1C2CC(OO2)[C@@H]1C/C=C\CCCC(=O)O` (stereo not given in full), the Activity result (in [3]; at Prostaglandin E synthase; in series [4]; in series [5]) was “Substrate” throughout.
